The results in this text go back to ChEMBL document CHEMBL4402605, “A Chemical Switch for Transforming a Purine Agonist for Toll-like Receptor 7 to a Clinically Relevant Antagonist” (J Med Chem, 2020).

Structures are written as SMILES. Calls of active or inactive are those of the source. The rule behind the calls is not given here.

In data set [1] the target is T1, Toll-like receptor 8 (Homo sapiens) (UniProt Q9NR97).
T1 sequence (whole entry): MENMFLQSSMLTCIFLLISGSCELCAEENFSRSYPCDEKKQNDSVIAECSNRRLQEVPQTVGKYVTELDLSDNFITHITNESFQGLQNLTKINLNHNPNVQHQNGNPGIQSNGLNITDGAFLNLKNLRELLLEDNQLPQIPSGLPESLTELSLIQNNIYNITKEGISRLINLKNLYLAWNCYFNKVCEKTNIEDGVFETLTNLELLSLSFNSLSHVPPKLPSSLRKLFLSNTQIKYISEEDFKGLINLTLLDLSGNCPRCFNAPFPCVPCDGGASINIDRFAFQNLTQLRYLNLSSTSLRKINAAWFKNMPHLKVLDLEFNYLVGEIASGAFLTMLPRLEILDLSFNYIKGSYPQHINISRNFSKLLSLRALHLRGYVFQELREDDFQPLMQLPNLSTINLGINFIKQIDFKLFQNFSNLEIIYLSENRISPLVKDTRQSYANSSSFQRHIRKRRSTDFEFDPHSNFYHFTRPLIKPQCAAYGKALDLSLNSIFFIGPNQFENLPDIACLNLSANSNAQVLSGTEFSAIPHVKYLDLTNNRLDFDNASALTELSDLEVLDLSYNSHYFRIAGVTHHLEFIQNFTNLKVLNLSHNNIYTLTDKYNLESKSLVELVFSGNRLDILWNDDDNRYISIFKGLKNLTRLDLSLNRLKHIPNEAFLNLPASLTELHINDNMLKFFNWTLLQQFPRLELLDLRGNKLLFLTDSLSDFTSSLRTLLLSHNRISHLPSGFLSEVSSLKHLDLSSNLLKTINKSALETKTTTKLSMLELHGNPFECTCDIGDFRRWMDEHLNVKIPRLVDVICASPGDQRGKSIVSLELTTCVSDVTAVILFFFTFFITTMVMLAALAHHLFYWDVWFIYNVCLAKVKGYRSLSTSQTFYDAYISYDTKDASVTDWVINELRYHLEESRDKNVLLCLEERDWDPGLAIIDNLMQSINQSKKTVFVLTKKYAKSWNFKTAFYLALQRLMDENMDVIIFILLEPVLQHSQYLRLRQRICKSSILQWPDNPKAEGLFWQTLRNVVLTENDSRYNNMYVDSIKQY
As to the kind of experiment: Antagonist activity at human TLR8 expressed in HEK-Blue cells assessed as inhibition of CL075-induced NFkappaB activation by measuring reduction in SEAP level up to 50 uM after overnight incubation using qunati-blue reagent by SEAP reporter gene-based spectrophotometric method. Type of data set: cell-based. (In a reporter assay the amount or activity of a reporter protein is the signal.)

The nature of data set [2]: Apparent permeability across apical to basal side in human Caco2 cells at 10 uM measured after 120 mins by LC-MS/MS analysis. The note with it: Caco-2.
The nature of data set [3]: Half life in human liver microsomes at 100 uM by LC-MS/MS analysis.
A short description of data set [4]: Tmax in C57BL/6 mouse at 15 mg/kg, po administered via gavage by LC-MS/MS analysis. The data set is classed as ADME, organism-based. The note with it: in vivo.
The nature of data set [5]: Oral bioavailability in C57BL/6 mouse at 15 mg/kg administered via gavage by LC-MS/MS analysis. The data set is classed as ADME, organism-based. The note with it: in vivo.
Data set [6] in a line: Toxicity in C57BL/6 mouse assessed as change in liver parenchymal architecture at 15 mg/kg, po administered once daily via gavage for 7 consecutive days and measured post-last dose by H and E staining based histomorphological analysis. The data set is classed as organism-based. The settings on record: in vivo.
Data set [7] has as its system Mus musculus. As to the kind of experiment: Protection against imiquimod-induced C57BL/6 mouse model of psoriasis assessed as decrease in skin scaling at 15 mg/kg, po administered via gavage treated 1 day prior to imiquimod application and subsequent daily dosing for 7 consecutive days and measured post-last dose relative to control. Set-up: scale not given: the % may be the effect or the level left. The data set is classed as functional.

Data set [8] relates to Mus musculus. As to the kind of experiment: Protection against imiquimod-induced C57BL/6 mouse model of psoriasis assessed as decrease in skin thickening at 15 mg/kg, po administered via gavage treated 1 day prior to imiquimod application and subsequent daily dosing for 7 consecutive days and measured post-last dose. Type of data set: functional, organism-based.
The subject of data set [9] is Mus musculus. As to the kind of experiment: Protection against imiquimod-induced C57BL/6 mouse model of psoriasis assessed as suppression of parakeratosis at 15 mg/kg, po administered via gavage treated 1 day prior to imiquimod application and subsequent daily dosing for 7 consecutive days and measured post-last dose by H and E staining based histopathological analysis. The data set is classed as functional.

Data set [10] has as its system Mus musculus. As to the kind of experiment: Protection against imiquimod-induced C57BL/6 mouse model of psoriasis assessed as suppression of spongiosis at 15 mg/kg, po administered via gavage treated 1 day prior to imiquimod application and subsequent daily dosing for 7 consecutive days and measured post-last dose by H and E staining based histopathological analysis. Type of data set: functional.

Data set [11] deals with Mus musculus. As to the kind of experiment: Protection against imiquimod-induced C57BL/6 mouse model of psoriasis assessed as suppression of papillomatosis at 15 mg/kg, po administered via gavage treated 1 day prior to imiquimod application and subsequent daily dosing for 7 consecutive days and measured post-last dose by H and E staining based histopathological analysis. Type of data set: functional.

In data set [12] the test system is Mus musculus. Put plainly: Protection against imiquimod-induced C57BL/6 mouse model of psoriasis assessed as suppression of microabscesses at 15 mg/kg, po administered via gavage treated 1 day prior to imiquimod application and subsequent daily dosing for 7 consecutive days and measured post-last dose by H and E staining based histopathological analysis. The data set is classed as functional.

The test system of data set [13] is Mus musculus. As to the kind of experiment: Protection against imiquimod-induced C57BL/6 mouse model of psoriasis assessed as suppression of pustule formation at 15 mg/kg, po administered via gavage treated 1 day prior to imiquimod application and subsequent daily dosing for 7 consecutive days and measured post-last dose by H and E staining based histopathological analysis. Type of data set: functional.

In data set [14] the test system is Mus musculus. Put plainly: Protection against imiquimod-induced C57BL/6 mouse model of psoriasis assessed as reduction in TNFalpha mRNA expression at 15 mg/kg, po administered via gavage treated 1 day prior to imiquimod application and subsequent daily dosing for 7 consecutive days and measured post-last dose by SYBR green dye based qPCR analysis. The data set is classed as functional, organism-based. A general note: In qPCR the cycle at which signal appears reflects the starting amount.

Data set [15] relates to Mus musculus. Put plainly: Protection against imiquimod-induced C57BL/6 mouse model of psoriasis assessed as reduction in MX1 mRNA expression at 15 mg/kg, po administered via gavage treated 1 day prior to imiquimod application and subsequent daily dosing for 7 consecutive days and measured post-last dose by SYBR green dye based qPCR analysis. The data set is classed as functional, organism-based.

Data set [16] relates to Mus musculus. As to the kind of experiment: Protection against imiquimod-induced C57BL/6 mouse model of psoriasis assessed as reduction in ISG15 mRNA expression at 15 mg/kg, po administered via gavage treated 1 day prior to imiquimod application and subsequent daily dosing for 7 consecutive days and measured post-last dose by SYBR green dye based qPCR analysis. Type of data set: functional, organism-based.

A short description of data set [17]: Toxicity in C57BL/6 mouse assessed as liver fatty infiltration at 15 mg/kg, po administered once daily via gavage for 7 consecutive days and measured post-last dose by H and E staining based histomorphological analysis. The data set is classed as organism-based. The note with it: in vivo.
A short description of data set [18]: Toxicity in C57BL/6 mouse assessed as mesangial proliferation at 15 mg/kg, po administered once daily via gavage for 7 consecutive days and measured post-last dose by H and E staining based histomorphological analysis. The data set is classed as organism-based. The note with it: in vivo.
Data set [19] is described as follows: Toxicity in C57BL/6 mouse assessed as behavioral changes at 15 mg/kg, po administered once daily via gavage for 7 consecutive days and measured post-last dose by H and E staining based histomorphological analysis. Type of data set: organism-based. The note with it: in vivo.
Data set [20] can be described thus: Toxicity in C57BL/6 mouse assessed as physiological abnormalities at 15 mg/kg, po administered once daily via gavage for 7 consecutive days and measured post-last dose by H and E staining based histomorphological analysis. The data set is classed as organism-based. The note with it: in vivo.

In the case of `CCN1CCN(CCCn2cnc3c(N4CCN(CC)CC4)ncnc32)CC1`, the inhibition entry in [1] is “inactive”. Moreover, the Papp A→B at 2 h, 10 µM in data set [2] amounted to 3.57 ×10⁻⁶ cm/s. In data set [3], this molecule displayed a half-life at 100 µM of 1.5 h. For the same molecule, the Tmax in data set [4] was found to be 2 h. Besides, in data set [5], the bioavailability was 70.8%. Besides, the Activity result was “Non-Toxic” in [6]; 100% in data set [7]; 100% in [9]; 100% in data set [10]; 100% in [11]; 100% in data set [12]. The Activity in [13] is given as 100%; in data set [17], “Non-Toxic”; in [18] it was “Non-Toxic”; in data set [19], “Non-Toxic”; in [20], “Non-Toxic”. Also, the outcome in data set [8], in data set [14], in data set [15] and in data set [16] was Active.

What is called Papp A→B is the apparent permeability from the apical to the basolateral side of a cell layer. As usually defined, the half-life is the time in which the quantity being followed falls by half. As usually defined, the Tmax is the time at which the peak concentration occurs. The term bioavailability denotes dose-corrected exposure relative to a reference, in per cent.
